Experimental data reported in publication PMC13267291, “In vivo functional profiling and structural characterization of the human GLP1R A316T variant” (Science Advances, 2026).

Experiments:
[1] = tested on: SNAP/FLAG-hGLP1R^A316T versus ^WT; assay: Real-time cytosolic calcium assay (Cal-520, AM) in transduced hGLP1R^-/- mouse islets; assay type: cell-based, human; settings: 100 nM; 6 mM glucose; AUC; n = 3-4; fig. S7D-H
Procedure: signal serially monitored for 30 min. The TR-FRET ratio, i.e. the ratio of fluorescence intensities at 590 and 490 nm, was considered indicative of the proximity of the GLP-1R ECD to the plasma membrane.
Baseline-normalised AUCs were used to generate concentration– response curves fitted using GraphPad Prism 10.1.2, with logEC50 and Emax calculated for each replicate dose response curve.
Real- time c ytosolic c alcium a ssay hGLP1R-/- mouse islets were transduced with pAV- SNAP/FLAG-hGLP1RWT or A316T adenoviruses for 24 hours, labelled with the Ca2+ dye Cal-520, AM (4.5 μM; Stratech) diluted in KBRH buffer containing 6 mM glucose for 1 hour and encased in Matrigel onto […] glass bottom MatTek dishes. Islets were then imaged every 6 s at 488 nm using a Nikon Eclipse Ti microscope with an ORCA-Flash 4.0 camera (Hamamatsu) and Metamorph software (Molecular Devices) at 37°C on a heated stage before and after addition of the indicated GLP-1RA followed by 11 mM glucose and then 20 mM KCl at the indicated time points. Raw fluorescence intensity traces from islet ROIs were extracted using Fiji. Responses were plotted relative to the average fluorescence intensity during the 6 mM glucose baseline period, before agonist addition, and AUCs separately calculated for the GLP- 1RA + 6 mM and 11 mM glucose […]
Isolation o f detergent-resistant membrane (D RM) fractions
To purify lipid rafts, […] fractions were isolated from INS-1 832/3 Glp1r-/- SNAP/FLAG-hGLP1RWT or A316T cells by ultracentrifugation based on their insolubility in non-ionic detergents at 4°C and their low density because of their high lipid-to- protein ratio. Cells seeded onto 6-cm dishes were stimulated ± 100 […]
mM tris-HCl, pH 7.0 buffer supplemented with cOmplete EDTA-free protease inhibitor cocktail (Roche) and phosphatase inhibitor cocktail 2 (Sigma-Aldrich) for 10-15 minutes on a rocking platform at 4°C. The cell suspension was collected and homogenised by passing through a 21-gauge needle, followed by ultracentrifugation at 63,000 g f or 1 hour at 4°C with a Sorvall Discovery M120 ultracentrifuge. Pellets

[2] = tested on: SNAP/FLAG-hGLP1R^A316T versus ^WT; assay: GLP-1R recycling assay; assay type: cell-based, human; settings: INS-1 832/3 sublines; 1 hour agonist, 1 and 3 hours recycling; n = 3-4; Fig. 7H
Procedure: INS-1 832/3 Glp1r^−/− SNAP/FLAG-hGLP1R^WT or ^A316T cells were seeded as above for 24 hours, washed with HBSS, pretreated with vehicle or GLP-1RA for 1 hour at 37°C in complete medium, washed again, and treated with 100 nM exendin-4–TMR in reverse time order for 3 hours and 1 hour at 37°C in complete medium. Plates were then promptly imaged after washing as above. In this assay, total exendin-4–TMR uptake is indicative of residual surface receptor at the end of the GLP-1RA treatment and cumulative reappearance of the surface receptor during the recycling period.

[3] = tested on: hGLP1R^A316T-SmBiT versus hGLP1R^WT-SmBiT; assay: Mini-Gs recruitment by NanoBiT complementation; assay type: cell-based, human; settings: serial doses up to 100 nM; n = 5; Fig. 7L
Procedure: For mini-Gs recruitment, INS-1 832/3 Glp1r^−/− cells were seeded in 6-cm dishes and transiently cotransfected with 1.7 μg each of hGLP1R^WT or ^A316T-SmBiT and LgBiT-mini-Gs constructs for 24 hours. Cells were then detached, resuspended in Hanks’ balanced salt solution (HBSS) containing NanoGlo Live Cell Reagent (1:20; Promega) with furimazine, and seeded onto white 96-well half-area plates. Baseline luminescence was immediately recorded over 8 min at 37°C in a Flexstation 3 plate reader (Molecular Devices) and for a further 30 min after GLP-1RA addition at serial doses up to 100 nM. Readings were taken every 30 s and normalized to average well baseline, and average vehicle-induced signal was subtracted to establish the agonist-induced effect. To measure β-arrestin 2 recruitment, cells were processed as above with slight modifications: INS-1 832/3 Glp1r^−/− cells were cotransfected with 1.77 μg each of hGLP1R^WT or ^A316T-SmBiT and LgBiT–β-arrestin 2 plasmids for 24 hours, and GLP-1RAs were added at serial doses up to 1 μM. AUCs were calculated for each agonist concentration and fitted to log(agonist) versus response four-parameter curves using GraphPad Prism 10.1.2, with errors propagated for mini-Gs over β-arrestin 2 recruitment bias calculations.

[4] = tested on: SNAP/FLAG-hGLP1R^A316T versus ^WT; assay: Real-time cAMP imaging (cADDis) in INS-1 832/3 sublines; assay type: cell-based, rat; settings: 100 nM, n = 4, no significant differences, fig. S8K-P
Procedure: To measure cAMP, hGLP1R^A316T/A316T versus ^+/+ control mouse islets, or INS-1 832/3 SNAP/FLAG-hGLP1R^WT versus ^A316T cells cultured on glass-bottom MatTek dishes, were transduced with cADDis (Green Gs cADDis cAMP Kit, Montana Molecular), a baculovirus genetically encoding a fluorescent cAMP in situ biosensor, following the manufacturer’s instructions. Transduced islets were subsequently encased into Matrigel on glass-bottom MatTek dishes 24 hours after transduction, and both islets and cells were imaged at λex = 488 nm in a Nikon Eclipse Ti spinning disk confocal microscope and 20× objective with an ORCA-Flash 4.0 camera (Hamamatsu) for time-lapse recordings with image acquisitions every 6 s in KRBH buffer containing 0.1% (w/v) BSA and 6 mM glucose for 2 min to record the baseline, with 100 nM GLP-1RA subsequently added by manual pipetting, and islets imaged for a further 5 min before addition of 100 μM IBMX + 10 μM forskolin for the final 2 min of the acquisition. Raw green fluorescence intensity traces were extracted from whole islet regions of interest (ROIs) using Fiji, and mean intensities were calculated for each ROI and time point. Responses were plotted relative to average fluorescence intensity per islet during the baseline period before GLP-1RA addition.

Substance | Agonist-induced Ca^2+ responses, A316T versus WT [1] | A316T receptor recycling to the plasma membrane versus WT [2] | A316T mini-Gs recruitment versus WT, log(Emax/EC50) [3] | cAMP responses, A316T versus WT [4]
GLP-1(7-36)NH2 | not significantly different | significantly reduced | No significant changes | tendency for increased cAMP
exendin-4 | not significantly different | not different from WT | No significant changes | reduced responses
exendin-F1 | increased | not different from WT | increased potency | tendency for increased cAMP
